BigSolDB 2.1

Conditions: in water

O=C1NC(=O)c2cc([N+](=O)[O-])ccc21
Conditions | solubility (mole fraction)
278.15 K | 0.000105
283.15 K | 0.000142
288.15 K | 0.000187
293.15 K | 0.000248
298.15 K | 0.000324
303.15 K | 0.000415
308.15 K | 0.000537
313.15 K | 0.000684
318.15 K | 0.00086
323.15 K | 0.00109
